Measured values taken from patent US9127044B2, “Cyclic depsipeptides” (NOVARTIS AG, priority 2007, dated 2015).

Assays:
human kallikrein 7 = human kallikrein 7 (Homo sapiens, UniProt P49862); assay: Kallikrein-7 inhibitory activity in vitro (fluorescence-quenched substrate); assay type: biochemical
hairless SKH1 mice = assay: Test on recovery of skin barrier disruption in mice (TEWL); assay type: in vivo; settings: 10 mM
Experimental: The procedure was completed when transepidermal water loss (TEWL) achieved ≧40 mg/cm^2/h. TEWL was assessed with a Tewameter TM210 (Courage Khazaka, Cologne, Del.). Immediately after barrier disruption 30 μl the test compound was applied at 10 mM concentration. Control animals were treated similarly with the solvent (ethanol/propylene glycol, 3/7 (v/v)) alone. TEWL was measured before, immediately after, and at 3 hrs after barrier disruption. In each animal, the percentage recovery was calculated using the formula: (1−[TEWL at 3 hrs−base line TEWL]/[TEWL immediately after stripping−base line TEWL])×100%.

[1] = system: Swine Model of Allergic Contact Dermatitis (ACD); assay: Anti-inflammatory activity in swine model of allergic contact dermatitis (ACD), DNFB; assay type: in vivo
Experimental: Eight days before the elicitation of the ACD, […] of 10% 2,4-dinitrofluorobenzene (DNFB, dissolved in DMSO/acetone/olive oil [1/5/3, v/v/v]) were applied epicutaneously in divided volumes onto the basis of both ears and onto both groins (100 μl/site) for sensitization. The challenge reactions were elicited with 15 μl of DNFB (1.0%) on contralateral test sites (each 7 cm^2 in size) of the shaved dorsolateral back. For treatment, the test compound and the placebo (solvent only) were applied contralaterally to 2 test sites in each animal 0.5 and 6 hrs after the challenge. The test sites were clinically examined 24 hrs after the challenge when inflammation peaked. The changes were scored on a scale from 0 to 4 (Table 15), allowing a combined maximal score of 12 per designated site. Skin reddening was measured reflectometrically using a* values.

human kallikrein 7, sequence (P49862 30-253): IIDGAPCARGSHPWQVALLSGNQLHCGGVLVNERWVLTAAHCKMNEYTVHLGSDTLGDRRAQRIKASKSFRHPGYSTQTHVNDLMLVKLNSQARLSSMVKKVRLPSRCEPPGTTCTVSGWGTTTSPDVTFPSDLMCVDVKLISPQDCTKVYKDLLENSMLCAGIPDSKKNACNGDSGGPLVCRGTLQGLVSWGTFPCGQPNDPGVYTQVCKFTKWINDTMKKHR

CCC(C)[C@@H]1NC(=O)[C@H](Cc2ccc(O)cc2)N(C)C(=O)[C@H](C(C)CC)N2C(=O)C(CC[C@@H]2O)NC(=O)[C@H](CC(C)C)NC(=O)[C@@H](NC(=O)[C@H](CCC(N)=O)NC(=O)C(C)C)[C@@H](C)OC1=O (stereo partly shown) [formula II]
IC50 (human kallikrein 7; hKallikrein7 IC50, Table 10): 1 nM | IC50 (human kallikrein 7; hKallikrein7 IC 50, Table 11): 1 nM | % Recovery in barrier disruption Mean (SD values) (hairless SKH1 mice; 30 μl topical, TEWL at 3 hrs, n: 4 animals per group): 72.0 (9.1) % | acceleration of barrier repair compared to repair in mice treated with the solvent alone (hairless SKH1 mice; single topical application, 3 hrs after barrier disruption, p<0.05): 57% | A* value (Mean), skin reddening measured reflectometrically ([1]; 1% solution applied 0.5 and 6 hrs after challenge, 24 hrs, n: 8 test sites): 8.6 | Clinical score (Mean) ([1]; 1% solution applied 0.5 and 6 hrs after challenge, scored at 24 hrs, maximal score 12, n: 8 test sites): 5.1 | Inhibition vs placebo-treated sites, A* value ([1]; Table 16, 1% test compound): 27.0 | Inhibition vs placebo-treated sites, clinical score ([1]; Table 16, 1% test compound): 29.9 | inhibition of clinical inflammatory changes ([1]; treated twice with 1% solution, p<0.01): 30% | inhibition of measured skin redness ([1]; treated twice with 1% solution, p<0.05): 27%
